According to paper PMC10289985, “Brigatinib pharmacokinetics in patients with chronic hepatic impairment” (Investigational New Drugs, 2023):
Read-outs that look alike come from different tables or passages of the source.

Experiments:
[1] = Plasma protein binding of brigatinib by rapid equilibrium dialysis of participants' plasma samples; assay type: in vitro ADME, human; conditions: for fraction unbound: human, plasma, oral, 90 mg, pooled 2, 8, 24 h postdose
Experimental: (§1) Blood samples were collected before brigatinib administration (predose) and at 0.5, 1, 1.5, 2, 2.5, 3, 4, 6, 8, 12, 24, 36, 48, 72, 96, 120, 144, 168, and 192 hours following brigatinib administration to measure brigatinib plasma concentrations. Samples to assess brigatinib plasma protein binding were collected at 2, 8, and 24 hours postdose.
Free fractions of brigatinib in plasma samples were determined as previously reported. Briefly, free brigatinib was separated from protein-bound brigatinib by rapid equilibrium dialysis of plasma samples against warm (37° C) phosphate-buffered saline using the Thermo Scientific Single-Use Rapid Equilibrium Dialysis kit (Thermo Fisher Scientific, Waltham, MA) according to the manufacturer’s specifications. […] After incubation, samples were analyzed for brigatinib concentrations using liquid chromatography with tandem mass spectrometry as previously reported using a dual-range assay with a lower limit of quantitation of 0.100 ng/mL and an upper limit of quantitation of […].
(§2) The PK-evaluable population was defined as participants who received the single dose of brigatinib, had no major protocol deviations that affected the PK analyses, and had sufficient data to calculate PK parameters. Individual participant brigatinib plasma concentration-time profiles were analyzed via noncompartmental analysis using Phoenix WinNonLin version 6.4 (Certara, Inc., Princeton, NJ) to calculate plasma PK parameters. Plasma PK parameters calculated for brigatinib included maximum observed plasma concentration (Cmax), time to first maximum observed plasma concentration (Tmax), area under the plasma concentration-time curve from time 0 to the time of the last measurable concentration (AUC0−last), area under the plasma concentration-time curve from time 0 to infinity (AUC0−∞), terminal elimination half-life (t1/2), apparent oral clearance (CL/F), and apparent volume of distribution during the terminal disposition phase (Vz/F). The fraction of unbound brigatinib in plasma was calculated using the following formula: % free (unbound) = [free brigatinib concentration measured in buffer after dialysis] / [total brigatinib concentration measured in plasma] × 100. Unbound brigatinib PK parameters were derived from the following formula (except for the unbound CL/F and unbound Vz/F, which were calculated as total CL/F or total Vz/F divided by the individual participant’s overall mean fraction unbound): unbound PK parameter = (PK parameter based on total concentrations) × (individual participant’s overall mean fraction unbound value).

[2] = Single oral 90-mg dose plasma PK in participants with chronic hepatic impairment and matched healthy participants; assay type: in vivo, human; conditions: for Tmax / half-life / AUC(0-t) / AUC(0-inf): human, plasma, po, 90 mg; for Tmax / half-life / AUC(0-t) / AUC(0-inf) / Tmax, median (range) / CL/Fu, unbound apparent oral clearance, geometric mean (geometric %CV) / Vz/Fu, unbound apparent volume of distribution, geometric mean (geometric %CV) / Cmax,u, geometric mean (geometric %CV): single oral 90 mg; for Tmax / Tmax, median (range): fasted; for Tmax: read-out: Tmax, median (range); for half-life: read-out: t1/2, terminal elimination half-life, geometric mean (geometric %CV) (converted); for AUC(0-t) / AUC(0-inf) / Cmax,u, geometric mean (geometric %CV): unbound; for AUC(0-t): read-out: AUC0−last,u, geometric mean (geometric %CV); for AUC(0-inf): read-out: AUC0−∞,u, geometric mean (geometric %CV)
Experimental: This open-label, parallel-group, inpatient, nonrandomized study was performed at 1 clinical study site, the Orlando Clinical Research Center (Orlando, FL, USA), and evaluated the PK of brigatinib after administration of a single oral 90-mg dose in participants with chronic hepatic impairment and in healthy participants with normal hepatic function. The study consisted of a screening period of up to 22 days and a single treatment and assessment period that included a 10-day (9-night) inpatient stay (Day −1 to Day 9). On the morning of Day 1, each participant received a single oral dose of 90 mg brigatinib under fasting conditions with approximately 240 mL of water. Fasting was required for approximately 10 hours before study drug dosing, for approximately 4 hours postdose, and for at least 8 hours before clinical laboratory tests. Meals were standardized for all participants. Water was permitted ad libitum except for the period between approximately 1 hour before and 1 hour after dosing. Participants remained in the clinic through 192 hours postdose for PK sample collection and were discharged from the clinical research site on Day 9.
as §1
Plasma samples were analyzed for brigatinib concentrations using a previously reported dual-range assay with a lower limit of quantitation of 0.100 ng/mL and an upper limit of quantitation of 2500 ng/mL [14].
as §2
Descriptive statistics, including mean, standard deviation (SD), percent coefficient of variation (%CV), and median, minimum, and maximum values, were calculated for each time point for plasma brigatinib concentrations for the healthy participant and each Child-Pugh group. Arithmetic means, SD, %CV, median, minimum, and maximum values, and the number of observations were calculated for the PK parameters. Geometric mean and geometric %CV were derived for all parameters, except Tmax, which was reported as median (minimum–maximum). Statistical comparisons of unbound brigatinib PK parameters were made among the hepatic function groups (ie, healthy participants, Child-Pugh classes A, B, and C) using an analysis of variance. […]

TKI-naive ALK+ NSCLC = system: TKI-naive ALK+ NSCLC; set-up: method as in PMID 34537440; conditions: 95% CI 0.35–0.66; P < 0.0001; cited from earlier work
[3] = set-up: method as in PMID 30570839; conditions: versus fasted conditions; healthy participants; cited from earlier work
CYP2C8 = system: CYP2C8; set-up: method as in PMID 31287236; conditions: cited from earlier work
CYP3A = system: CYP3A; set-up: method as in PMID 31287236; conditions: cited from earlier work
[4] = set-up: method as in PMID 32816246; conditions: single oral 180 mg [14C]-brigatinib; cited from earlier work
[5] = mild (Child-Pugh A) vs normal hepatic function
[6] = moderate (Child-Pugh B) vs normal hepatic function
[7] = severe (Child-Pugh C) vs normal hepatic function

COc1cc(N2CCC(N3CCN(C)CC3)CC2)ccc1Nc1ncc(Cl)c(Nc2ccccc2P(C)(C)=O)n1 [brigatinib]
concentration dependence of plasma protein binding ([1]; 2, 8 and 24 h postdose within each hepatic function group): not concentration-dependent
mean fraction unbound, Child-Pugh C relative to healthy participants ([1]; Child-Pugh C vs healthy participants): 2.7 fold
fraction unbound ([1]; Child-Pugh A, mild hepatic impairment (n=6), read-out: mean fraction unbound (free) in plasma): 0.111
fraction unbound ([1]; Child-Pugh A, read-out: pooled mean ± SD fraction unbound (converted)): 0.111
fraction unbound ([1]; Child-Pugh B, moderate hepatic impairment (n=6), read-out: mean fraction unbound (free) in plasma): 0.108
fraction unbound ([1]; Child-Pugh B, read-out: pooled mean ± SD fraction unbound (converted)): 0.108
fraction unbound ([1]; Child-Pugh C, severe hepatic impairment (n=6), read-out: mean fraction unbound (free) in plasma): 0.231
fraction unbound ([1]; Child-Pugh C, read-out: pooled mean ± SD fraction unbound (converted)): 0.231
fraction unbound ([1]; healthy participants, normal hepatic function (n=9), read-out: mean fraction unbound (free) in plasma): 0.085
fraction unbound ([1]; healthy participants, read-out: pooled mean ± SD fraction unbound (converted)): 0.085
geometric mean AUC0−last,u higher than in healthy participants ([2]; Child-Pugh C vs healthy participants with normal hepatic function): 34%
Tmax ([2]; mild (Child-Pugh A) hepatic impairment (n=6)): 1.75 h
Tmax ([2]; severe (Child-Pugh C) hepatic impairment (n=6)): 0.5 h
half-life ([2]; mild (Child-Pugh A) (n=6)): 47 h
half-life ([2]; moderate (Child-Pugh B) (n=6)): 48.7 h
half-life ([2]; normal hepatic function (n=9)): 47.6 h
half-life ([2]; severe (Child-Pugh C) (n=6)): 51 h
AUC(0-t) ([2]; mild (Child-Pugh A) (n=6)): 522 ng·h/mL
AUC(0-inf) ([2]; mild (Child-Pugh A) (n=6)): 539 ng·h/mL
AUC(0-t) ([2]; moderate (Child-Pugh B) (n=6)): 578 ng·h/mL
AUC(0-inf) ([2]; moderate (Child-Pugh B) (n=6)): 601 ng·h/mL
AUC(0-t) ([2]; normal hepatic function (n=9)): 581 ng·h/mL
AUC(0-inf) ([2]; normal hepatic function (n=9)): 603 ng·h/mL
AUC(0-t) ([2]; severe (Child-Pugh C) (n=6)): 781 ng·h/mL
AUC(0-inf) ([2]; severe (Child-Pugh C) (n=6)): 829 ng·h/mL
AUC0−last,u geometric LSM ratio (90% CI) [2, 5]: 89.77 (70.37–114.52) %
AUC0−∞,u geometric LSM ratio (90% CI) [2, 5]: 89.32 (69.79–114.31) %
Cmax,u geometric LSM ratio (90% CI) [2, 5]: 94.75 (75.36–119.12) %
AUC0−last,u geometric LSM ratio (90% CI) [2, 6]: 99.41 (77.93–126.82) %
AUC0−∞,u geometric LSM ratio (90% CI) [2, 6]: 99.55 (77.78–127.41) %
Cmax,u geometric LSM ratio (90% CI) [2, 6]: 92.01 (73.18–115.68) %
AUC0−last,u geometric LSM ratio (90% CI) [2, 7]: 134.38 (105.34–171.43) %
AUC0−∞,u geometric LSM ratio (90% CI) [2, 7]: 137.41 (107.37–175.86) %
Cmax,u geometric LSM ratio (90% CI) [2, 7]: 165.26 (131.44–207.78) %
Tmax, median (range) ([2]; moderate (Child-Pugh B) hepatic impairment (n=6)): 2.00 (0.50‒3.00) h
Tmax, median (range) ([2]; normal hepatic function (n=9)): 2.00 (1.00‒6.00) h
CL/Fu, unbound apparent oral clearance, geometric mean (geometric %CV) ([2]; mild (Child-Pugh A) (n=6)): 167 (24.9) L/h
Vz/Fu, unbound apparent volume of distribution, geometric mean (geometric %CV) ([2]; mild (Child-Pugh A) (n=6)): 11,300 (45.8) L
CL/Fu, unbound apparent oral clearance, geometric mean (geometric %CV) ([2]; moderate (Child-Pugh B) (n=6)): 150 (39.8) L/h
Vz/Fu, unbound apparent volume of distribution, geometric mean (geometric %CV) ([2]; moderate (Child-Pugh B) (n=6)): 10,500 (29.5) L
CL/Fu, unbound apparent oral clearance, geometric mean (geometric %CV) ([2]; normal hepatic function (n=9)): 149 (25.0) L/h
Vz/Fu, unbound apparent volume of distribution, geometric mean (geometric %CV) ([2]; normal hepatic function (n=9)): 10,200 (31.0) L
CL/Fu, unbound apparent oral clearance, geometric mean (geometric %CV) ([2]; severe (Child-Pugh C) (n=6)): 109 (20.0) L/h
Vz/Fu, unbound apparent volume of distribution, geometric mean (geometric %CV) ([2]; severe (Child-Pugh C) (n=6)): 7,990 (33.2) L
Cmax,u, geometric mean (geometric %CV) ([2]; mild (Child-Pugh A) (n=6)): 28.7 (9.5) ng/mL
Cmax,u, geometric mean (geometric %CV) ([2]; moderate (Child-Pugh B) (n=6)): 27.8 (24.8) ng/mL
Cmax,u, geometric mean (geometric %CV) ([2]; normal hepatic function (n=9)): 30.3 (27.2) ng/mL
Cmax,u, geometric mean (geometric %CV) ([2]; severe (Child-Pugh C) (n=6)): 50.0 (34.5) ng/mL
PFS hazard ratio, brigatinib compared with crizotinib (TKI-naive ALK+ NSCLC): 0.48
effect of a high-fat, high-calorie meal on total systemic exposure (AUC) [3]: no clinically meaningful effect
effect of a strong CYP2C8 inhibitor on brigatinib systemic exposure (CYP2C8): no clinically relevant effect
decrease of AUC0−∞ with the strong CYP3A inducer rifampicin (CYP3A): 80%
increase of AUC0−∞ with the strong CYP3A inhibitor itraconazole (CYP3A): 101%
administered dose recovered in the feces [4]: approximately 65%
administered dose recovered in the urine [4]: 25%
fecal recovery as unchanged brigatinib [4]: 41%
urinary recovery as unchanged brigatinib [4]: 86%
